Source: patent publication US8268962B2, “Molecules for targeting compounds to various selected organs or tissues” (Prosensa Technologies B.V., priority 2007, dated 2012)
Where no end group is shown, it is not given here.

Columns and labels:
[1] = tested on: gastrocnemius (calf muscle) of mdx mice; details: intramuscular, 2.5-5 nmol, cross-sections after three days
Method: FAM-labeled peptides QLFTSAS (SEQ ID NO.: 3) (5 nmol injected), LYQDYSL (SEQ ID NO.: 85) (2.5 nmol injected) and LGAQSNF (SEQ ID NO.: 100) (2.5 nmol injected) were analysed. After three days the mice were sacrificed and the muscles were snap frozen. Cross-sections were cut, fixed with acetone and mounted for analysis with a fluorescence microscope. Cross-sections were cut and photographed with a fluorescence microscope (CCD camera).

[2] = tested on: gastrocnemius muscle of a healthy mouse; details: intramuscular, 5 nmol, after 3 days
Method: Uptake of the FAM-labeled peptides QLFTSAS (SEQ ID NO.: 3) and LGAQSNF (SEQ ID NO.: 100) was also tested on the muscle of a healthy mouse. Of each peptide 5 nmol was injected into the gastrocnemius muscle. After 3 days the mice were sacrified and the amount of staining was assessed. Samples were photographed with an inverted fluorescence microscope.

[3] = tested on: myotubes obtained from human KM109 myoblast cultures; experiment: Uptake of FAM-labeled peptides and conjugate into cultured myotubes (fluorescence microscopy); format: cell-based; details: tested on human and mouse myotubes, no fixation
Method: Two of the peptides that occurred frequently after selection on both mouse and human myotubes, SPNSIGT and QLFTSAS, were synthesized with a fluorescent label (FAM) and tested for uptake into human and mouse differentiated muscle cells (myotubes). Myotubes were obtained from confluent human KM109 myoblast cultures by 7-14 days of serum deprivation. The culture was subsequently incubated with FAM-labeled peptide and photographed with an inverted fluorescence microscope, without previous fixation.
Peptide QLFTSAS was synthesized with a fluorescent label (FAM) and subsequently conjugated to a 21-mer 2′O-methyl phosphorothioate anti-sense oligonucleotide (AON). Myotubes were obtained from confluent human KM109 myoblast cultures by 7-14 days of serum deprivation. The culture was subsequently incubated with the FAM-labeled conjugate and photographed with an inverted fluorescence microscope, without previous fixation.
Three of the peptides that were found after four rounds of in vivo selection, were synthesized with a fluorescent label (FAM) and tested in cell culture for uptake on human myotubes as described in Example 1.

mdx mouse = experiment: In vivo targeting after subcutaneous injection of Cy5-labeled peptide (fluorescence imaging); details: 71 nmol subcutaneously on the back, 48 hours
Method: Peptide LGAQSNF was synthesized with the fluorescent label Cy5. This label can be detected with a high sensitivity by a fluorescence imaging system (NightOWL, Berthold Technologies) after systemic (intravenous or subcutaneous) injection into a mouse. This enables monitoring of the distribution across the different organs of a living mouse after injection of the compound. Of this peptide, 71 nmol was injected subcutaneously on the back of an mdx mouse and after 48 hours a picture was taken with the imaging system.
The mouse is lying on its back, and the back paws and an area on the abdomen were first shaved because the hairs on the skin impair detection of the signal. A clear signal could be detected in the back and front paws and in the tail. The signal in the shaved area on the abdomen is likely from abdominal muscle.

Substance: LYQDYSL
- uptake of FAM-labeled peptide into muscle fibers [1]: taken up into a large area of muscle fibers and were still visible after 3 days

Substance: LGAQSNF
- uptake of FAM-labeled peptide into myofibers of the injected muscle [2]: significant area of uptake
- uptake of FAM-labeled peptide into muscle fibers [1]: taken up into a large area of muscle fibers and were still visible after 3 days

Substance: QLFTSAS (also: FAM label)
- uptake of FAM-labeled peptide into cultured myotubes [3]: significant uptake
- uptake of FAM-labeled peptide into myofibers of the injected muscle [2]: significant area of uptake
- uptake of FAM-labeled peptide into muscle fibers [1]: taken up into a large area of muscle fibers and were still visible after 3 days

Substance: Cy5-labeled peptide LGAQSNF: Peptide LGAQSNF synthesized with the fluorescent label Cy5 (also: Cy5 label)
- distribution of Cy5-labeled peptide (mdx mouse): taken up by the abdominal muscle and by muscles in the hindlegs, paws and tail

Substance: SPNSIGT (also: FAM label) [7-mer peptide from in vitro phage selection on myotubes; tested with FAM label]
- uptake of FAM-labeled peptide into cultured myotubes [3]: significant uptake
